{
  "source": "paper PMC4138103",
  "about": "(PLoS ONE, 2014)",
  "tested_on": "Sprague-Dawley rats",
  "experiment": "Hematology",
  "format": "in vivo, Rattus norvegicus",
  "design": "HCT, Hematocrit: unit not given here",
  "settings": "females, group mean",
  "procedure": "Basic blood picture analysis was carried out using Advia 120 analyzer (Bayer, later Siemens Diagnostic Division, Dublin, Ireland). This analysis includes red cell count (RBC), hemoglobin (HB), hematocrit (HCT), platelet count (PLT), leukocyte total count (WBC) and differential count as well as the calculated red cell and platelet parameters mean corpuscular volume (MCV), mean corpuscular hemoglobin (MCH), mean corpuscular hemoglobin concentration (MCHC), red cell distribution width - standard deviation (RDW-SD), platelet distribution width (PDW) and mean platelet volume (MPV). Blood cell counting is based on isovolumetric sphering and fixing the cells, stains and light scattering. Visual leukocyte differential counting was done after May-Grünwald-Giemsa staining.\nData were also analyzed using the BMD method, which is based on dose-response modeling of the full data set using a nested family of exponential and Hill models. The analyses were done on data of males and females combined, using sex as a covariate. […] In that case, different Critical Effect Doses (CEDs) and CEDs at the lowest bound of the confidence interval (CED-L) were generated for each sex. If no difference between sexes is detected, a CED and CED-Ls for the combined data is generated. However, this was also done if the curve fits are close, and separate analyses for males and females were then performed manually. CEDs and CED-Ls were calculated at the predefined Critical Effect Size (CES) of 5% (EFSA standard) or 10%.",
  "key": {"[1]": {"settings": "total dose 1000 mg/kg bw, N=5, p<0.01 vs. control"}},
  "data": [
    {"smiles": "Clc1cc(Cl)c(-c2cc(Cl)c(Cl)c(Cl)c2Cl)cc1Cl", "note": "[PCB 180, 2,2′,3′,4,4′,5,5′-heptachlorobiphenyl]", "values": [
      {"measurement": "Basophils", "setting": "total dose 30 mg/kg bw, N=5", "result": 0.0, "unit": "%"},
      {"measurement": "Eosinophils", "setting": "total dose 30 mg/kg bw, N=5", "result": 1.6, "unit": "%"},
      {"measurement": "HB, Hemoglobin", "setting": "total dose 30 mg/kg bw, N=5", "result": 165, "unit": "g/L"},
      {"measurement": "HCT, Hematocrit", "setting": "total dose 30 mg/kg bw, N=5", "result": 0.45},
      {"measurement": "Lymphocytes", "setting": "total dose 30 mg/kg bw, N=5", "result": 88.8, "unit": "%"},
      {"measurement": "MCH, Mean corpuscular hemoglobin", "setting": "total dose 30 mg/kg bw, N=5", "result": 22.9, "unit": "pg"},
      {"measurement": "MCHC, Mean corpuscular hemoglobin concentration", "setting": "total dose 30 mg/kg bw, N=5", "result": 368, "unit": "g/L"},
      {"measurement": "MCV, Mean corpuscular volume", "setting": "total dose 30 mg/kg bw, N=5", "result": 62.2, "unit": "fL"},
      {"measurement": "MPV, Mean platelet volume", "setting": "total dose 30 mg/kg bw, N=5", "result": 6.74, "unit": "fL"},
      {"measurement": "Monocytes", "setting": "total dose 30 mg/kg bw, N=5", "result": 1.4, "unit": "%"},
      {"measurement": "Neutrophils", "setting": "total dose 30 mg/kg bw, N=5", "result": 8.2, "unit": "%"},
      {"measurement": "PDW, Platelet distribution width", "setting": "total dose 30 mg/kg bw, N=5", "result": 7.32, "unit": "fL"},
      {"measurement": "PLT, Platelet count", "setting": "total dose 30 mg/kg bw, N=5", "result": "8.47e+11", "unit": "L⁻¹"},
      {"measurement": "RBC, Red cell count", "setting": "total dose 30 mg/kg bw, N=5", "result": "7.22e+12", "unit": "L⁻¹"},
      {"measurement": "WBC, Leukocyte total count", "setting": "total dose 30 mg/kg bw, N=5", "result": "1.544e+10", "unit": "L⁻¹"},
      {"measurement": "Basophils", "setting": "total dose 100 mg/kg bw, N=5", "result": 0.0, "unit": "%"},
      {"measurement": "Eosinophils", "setting": "total dose 100 mg/kg bw, N=5", "result": 0.8, "unit": "%"},
      {"measurement": "HB, Hemoglobin", "setting": "total dose 100 mg/kg bw, N=5", "result": 169, "unit": "g/L"},
      {"measurement": "HCT, Hematocrit", "setting": "total dose 100 mg/kg bw, N=5", "result": 0.46},
      {"measurement": "Lymphocytes", "setting": "total dose 100 mg/kg bw, N=5", "result": 90.8, "unit": "%"},
      {"measurement": "MCH, Mean corpuscular hemoglobin", "setting": "total dose 100 mg/kg bw, N=5", "result": 22.8, "unit": "pg"},
      {"measurement": "MCHC, Mean corpuscular hemoglobin concentration", "setting": "total dose 100 mg/kg bw, N=5", "result": 370, "unit": "g/L"},
      {"measurement": "MCV, Mean corpuscular volume", "setting": "total dose 100 mg/kg bw, N=5", "result": 61.6, "unit": "fL"},
      {"measurement": "MPV, Mean platelet volume", "setting": "total dose 100 mg/kg bw, N=5", "result": 6.72, "unit": "fL"},
      {"measurement": "Monocytes", "setting": "total dose 100 mg/kg bw, N=5", "result": 1.4, "unit": "%"},
      {"measurement": "Neutrophils", "setting": "total dose 100 mg/kg bw, N=5", "result": 7.0, "unit": "%"},
      {"measurement": "PDW, Platelet distribution width", "setting": "total dose 100 mg/kg bw, N=5", "result": 7.14, "unit": "fL"},
      {"measurement": "PLT, Platelet count", "setting": "total dose 100 mg/kg bw, N=5", "result": "8.74e+11", "unit": "L⁻¹"},
      {"measurement": "RBC, Red cell count", "setting": "total dose 100 mg/kg bw, N=5", "result": "7.4e+12", "unit": "L⁻¹"},
      {"measurement": "WBC, Leukocyte total count", "setting": "total dose 100 mg/kg bw, N=5", "result": "1.654e+10", "unit": "L⁻¹"},
      {"measurement": "Basophils", "setting": "total dose 300 mg/kg bw, N=5", "result": 0.0, "unit": "%"},
      {"measurement": "Eosinophils", "setting": "total dose 300 mg/kg bw, N=5", "result": 1.2, "unit": "%"},
      {"measurement": "HB, Hemoglobin", "setting": "total dose 300 mg/kg bw, N=5", "result": 166, "unit": "g/L"},
      {"measurement": "HCT, Hematocrit", "setting": "total dose 300 mg/kg bw, N=5", "result": 0.45},
      {"measurement": "Lymphocytes", "setting": "total dose 300 mg/kg bw, N=5", "result": 90.6, "unit": "%"},
      {"measurement": "MCH, Mean corpuscular hemoglobin", "setting": "total dose 300 mg/kg bw, N=5", "result": 23.1, "unit": "pg"},
      {"measurement": "MCHC, Mean corpuscular hemoglobin concentration", "setting": "total dose 300 mg/kg bw, N=5", "result": 371, "unit": "g/L"},
      {"measurement": "MCV, Mean corpuscular volume", "setting": "total dose 300 mg/kg bw, N=5", "result": 62.2, "unit": "fL"},
      {"measurement": "MPV, Mean platelet volume", "setting": "total dose 300 mg/kg bw, N=5", "result": 6.98, "unit": "fL"},
      {"measurement": "Monocytes", "setting": "total dose 300 mg/kg bw, N=5", "result": 2.2, "unit": "%"},
      {"measurement": "Neutrophils", "setting": "total dose 300 mg/kg bw, N=5", "result": 6.0, "unit": "%"},
      {"measurement": "PDW, Platelet distribution width", "setting": "total dose 300 mg/kg bw, N=5", "result": 7.58, "unit": "fL"},
      {"measurement": "PLT, Platelet count", "setting": "total dose 300 mg/kg bw, N=5", "result": "8.2e+11", "unit": "L⁻¹"},
      {"measurement": "RBC, Red cell count", "setting": "total dose 300 mg/kg bw, N=5", "result": "7.19e+12", "unit": "L⁻¹"},
      {"measurement": "WBC, Leukocyte total count", "setting": "total dose 300 mg/kg bw, N=5", "result": "1.448e+10", "unit": "L⁻¹"},
      {"measurement": "Basophils", "setting": "total dose 1000 mg/kg bw, N=5", "result": 0.0, "unit": "%"},
      {"measurement": "Eosinophils", "setting": "total dose 1000 mg/kg bw, N=5", "result": 1.2, "unit": "%"},
      {"measurement": "Lymphocytes", "setting": "total dose 1000 mg/kg bw, N=5", "result": 89.8, "unit": "%"},
      {"measurement": "MCH, Mean corpuscular hemoglobin", "setting": "total dose 1000 mg/kg bw, N=5", "result": 23.1, "unit": "pg"},
      {"measurement": "MCHC, Mean corpuscular hemoglobin concentration", "setting": "total dose 1000 mg/kg bw, N=5", "result": 366, "unit": "g/L"},
      {"measurement": "MCV, Mean corpuscular volume", "setting": "total dose 1000 mg/kg bw, N=5", "result": 63.2, "unit": "fL"},
      {"measurement": "MPV, Mean platelet volume", "setting": "total dose 1000 mg/kg bw, N=5", "result": 6.74, "unit": "fL"},
      {"measurement": "Monocytes", "setting": "total dose 1000 mg/kg bw, N=5", "result": 3.2, "unit": "%"},
      {"measurement": "Neutrophils", "setting": "total dose 1000 mg/kg bw, N=5", "result": 5.8, "unit": "%"},
      {"measurement": "PDW, Platelet distribution width", "setting": "total dose 1000 mg/kg bw, N=5", "result": 7.26, "unit": "fL"},
      {"measurement": "PLT, Platelet count", "setting": "total dose 1000 mg/kg bw, N=5", "result": "8.69e+11", "unit": "L⁻¹"},
      {"measurement": "WBC, Leukocyte total count", "setting": "total dose 1000 mg/kg bw, N=5", "result": "1.392e+10", "unit": "L⁻¹"},
      {"measurement": "HB, Hemoglobin", "setting": "[1]", "result": 154, "unit": "g/L"},
      {"measurement": "RBC, Red cell count", "setting": "[1]", "result": "6.66e+12", "unit": "L⁻¹"},
      {"measurement": "HCT, Hematocrit", "setting": "total dose 1000 mg/kg bw, N=5, p<0.05 vs. control", "result": 0.42},
      {"measurement": "Basophils", "setting": "total dose 1700 mg/kg bw, N=5", "result": 0.0, "unit": "%"},
      {"measurement": "Eosinophils", "setting": "total dose 1700 mg/kg bw, N=5", "result": 1.0, "unit": "%"},
      {"measurement": "Lymphocytes", "setting": "total dose 1700 mg/kg bw, N=5", "result": 87.6, "unit": "%"},
      {"measurement": "MCH, Mean corpuscular hemoglobin", "setting": "total dose 1700 mg/kg bw, N=5", "result": 23.3, "unit": "pg"},
      {"measurement": "MCHC, Mean corpuscular hemoglobin concentration", "setting": "total dose 1700 mg/kg bw, N=5", "result": 366, "unit": "g/L"},
      {"measurement": "MCV, Mean corpuscular volume", "setting": "total dose 1700 mg/kg bw, N=5", "result": 63.7, "unit": "fL"},
      {"measurement": "MPV, Mean platelet volume", "setting": "total dose 1700 mg/kg bw, N=5", "result": 6.68, "unit": "fL"},
      {"measurement": "Monocytes", "setting": "total dose 1700 mg/kg bw, N=5", "result": 2.2, "unit": "%"},
      {"measurement": "Neutrophils", "setting": "total dose 1700 mg/kg bw, N=5", "result": 9.2, "unit": "%"},
      {"measurement": "PDW, Platelet distribution width", "setting": "total dose 1700 mg/kg bw, N=5", "result": 7.18, "unit": "fL"},
      {"measurement": "PLT, Platelet count", "setting": "total dose 1700 mg/kg bw, N=5", "result": "8.28e+11", "unit": "L⁻¹"},
      {"measurement": "WBC, Leukocyte total count", "setting": "total dose 1700 mg/kg bw, N=5", "result": "1.35e+10", "unit": "L⁻¹"},
      {"measurement": "HB, Hemoglobin", "setting": "total dose 1700 mg/kg bw, N=5, p<0.001 vs. control", "result": 150, "unit": "g/L"}
    ]}
  ]
}
